# Assays:
# [1] = target: T1, 5-HT1C receptors (Rattus norvegicus, UniProt P08909); experiment: Reversal of mCPP-induced hypolocomotion; assay type: in vivo; details: po, p.o. 1 h pretest, mCPP 7 mg/kg i.p., male Sprague Dawley rats, read-out: ID50 (the source's name)
# T1 construct: tissue Charles River; host or cells: whole animal, male Sprague Dawley rats (central receptors, in vivo)
# T1 sequence (P08909 33-460): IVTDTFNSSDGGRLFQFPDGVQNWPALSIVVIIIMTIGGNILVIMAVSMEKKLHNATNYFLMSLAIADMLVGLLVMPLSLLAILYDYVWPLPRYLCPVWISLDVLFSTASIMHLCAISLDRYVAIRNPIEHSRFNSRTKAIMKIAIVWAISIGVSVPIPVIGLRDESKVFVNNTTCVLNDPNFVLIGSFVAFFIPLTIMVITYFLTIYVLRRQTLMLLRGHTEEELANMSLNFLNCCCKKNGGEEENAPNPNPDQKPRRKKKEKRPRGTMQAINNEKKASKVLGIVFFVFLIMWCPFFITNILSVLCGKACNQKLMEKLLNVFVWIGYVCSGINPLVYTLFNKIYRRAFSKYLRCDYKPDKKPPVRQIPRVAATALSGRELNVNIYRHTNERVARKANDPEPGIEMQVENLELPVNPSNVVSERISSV
# Excerpt: This effect was blocked by the non specific 5-HT1C /5-HT2 receptor antagonists mianserin, cyproheptadine and metergoline and perhaps by mesulergine. It was not blocked by the 5-HT2 receptor antagonists ketanserin and ritanserin at relevant doses (Kennett and Curzon 1991) nor by antagonists of 5-HT1A, 5-HT1B, 5-HT3, α2 adrenoceptors or dompamine D2 receptors. The effect of mCPP is therefore considered to be mediated by 5-HT1C receptors (Kennett and Curzon 1988) as confirmed by subsequent studies (Lucki et al., 1989). Since mCPP causes hypolocomotion when infused into the cerebral ventricles this effect is probably centrally mediated (Kennett and Curzon 1988).
# mCPP-induced hypolocomotion was measured in automated locomotion cages of dimensions 56 cm long×161/2× cm wide×25 cm high and made of black perspex. Two photobeams traversed the width of the cages at either end at ground level. Sequential breaking of these beams allowed the measurement of cage transits.
# Male Sprague Dawley rats (200-250 g) (Charles River) were housed in groups of six. They were given drugs orally 1 h pretest and 40 mins later mCPP (7 mg/kg i.p.). After a further 20 min they were placed in individual automated cages in groups of four under red light in an adjacent room. After 10 min the test was terminated. […]
# [2] = target: T2, 5-HT1C -like Receptors (Rattus norvegicus, UniProt P30994); experiment: Rat fundic strip, antagonism of 5-HT; details: agonist 5-HT, read-out: pA2 (converted)
# T2 construct: tissue Charles River; host or cells: stomach fundus strips of male CD rats
# Excerpt: The 5-HT receptor in the rat fundic strip (RFS) has been characterised as `5-HT1C -like` as its pharmacology is similar, but not identical, to that of rat 5-HT1C receptor dones.
# Whole stomachs were obtained from male CD Rats (Charles River, 250-350 g). Strips of fundus (2 cm×0.5 cm) were cut from the greater curvature and the mucesae carefully removed. Tissues were then further dissected into smaller strips (2 mm×20 mm) which were mounted in organ baths containing oxygensted Tyrodes solution at 37° C. containing indomethacin (3 μM). Preparations were maintained under a resting tension of 0.5 g and exposed to the irreversible MAO inhibitor pargyline (100 μM for 30 minutes followed by washout). Over a 1 h equilibration period, rat fundic strips were challenged with 1×10^-8 M 5-HT at 15 minute intervals until constant responses were obtained. Fifteen minutes later, a complete cumulative concentration-effect curve to the standard agonist 5-HT (1×10^-10 upwards) was constructed to determine the individual sensitivity of each preparation. A further concentration-effect curve to either 5-HT, or other agonists was constructed no sooner than 1 h after completion of the previous curve. When necessary tissues were equilibrated with the antagonists over this one hour period. Antagonists affinities are expressed as pA2 estimates.
# [3] = system: rat stomach fundus seretonin receptor; details: J. Med. Chem. 1986 29 2415-2418; cited from earlier work
# [4] = target: T1, 5-HT1C receptors; details: rats; literature (Kennett and Curzon); cited from earlier work
# T2 sequence (P30994 whole entry): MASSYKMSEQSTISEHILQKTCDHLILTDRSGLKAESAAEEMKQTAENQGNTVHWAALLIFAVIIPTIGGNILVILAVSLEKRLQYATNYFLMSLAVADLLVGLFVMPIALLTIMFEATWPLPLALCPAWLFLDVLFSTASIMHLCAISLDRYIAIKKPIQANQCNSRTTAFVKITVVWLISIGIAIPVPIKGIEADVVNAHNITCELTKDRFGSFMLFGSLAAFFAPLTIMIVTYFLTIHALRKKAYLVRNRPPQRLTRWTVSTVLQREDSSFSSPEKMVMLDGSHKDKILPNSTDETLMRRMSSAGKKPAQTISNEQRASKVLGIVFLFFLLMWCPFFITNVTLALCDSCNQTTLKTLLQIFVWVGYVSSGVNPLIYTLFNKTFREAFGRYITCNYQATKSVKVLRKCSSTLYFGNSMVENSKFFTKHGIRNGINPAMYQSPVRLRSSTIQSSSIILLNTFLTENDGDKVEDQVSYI
SMILES,block of mCPP-induced hypolocomotion [4],also measured
"Cn1ccc2cc(NC(=O)Nc3cccnn3)ccc21 [Example 2, N-(1-Methyl-5-indolyl)-N'-(3-pyridazinyl) urea]",,ED50 [1]: 47 mg/kg
"Cn1ccc2cc(NC(=O)Nc3cncnc3)ccc21 [Example 3, N-(1-Methyl-5-indolyl)-N'-(5-pyrimidinyl) urea]",,ED50 [1]: 43.7 mg/kg
"Cc1cc(NC(=O)Nc2ccc3c(ccn3C)c2)sn1 [Example 5, N-(1-Methyl-5-indolyl)-N'-(3-methyl-5-isothiazolyl) urea]",,Kb [2]: 0.0126 µM
"CCc1c(C)n(C)c2ccc(NC(=O)Nc3cccc(C(F)(F)F)c3)cc12 [N-(1,2-dimethyl-3-ethyl-1H-indol-5-yl)-N'-(3-trifluoromethylphenyl)urea]",,selectivity for the rat stomach fundus serotonin receptor [3]: shows selectivity
CN1CCC(=C2c3ccccc3C=Cc3ccccc32)CC1 [cyproheptadine],blocked,
O=C(c1ccc(F)cc1)C1CCN(CCn2c(=O)[nH]c3ccccc3c2=O)CC1 [ketanserin],not blocked,
CN1C[C@@H](NS(=O)(=O)N(C)C)C[C@@H]2c3cccc4c3c(cn4C)C[C@H]21 [mesulergine],perhaps,
CN1C[C@H](CNC(=O)OCc2ccccc2)C[C@@H]2c3cccc4c3c(cn4C)C[C@H]21 [metergoline],blocked,
CN1CCN2c3ccccc3Cc3ccccc3C2C1 (stereo not shown) [mianserin],blocked,
Cc1nc2sccn2c(=O)c1CCN1CCC(=C(c2ccc(F)cc2)c2ccc(F)cc2)CC1 [ritanserin],not blocked,

# Source: patent publication US5508288A, “Indole derivatives as 5HT1C antagonists” (SmithKline Beecham, p.l.c., priority 1992, dated 1996)
